Key:
[1] = test system: BT549 cells; assay: Annexin V-PI apoptosis flow cytometry; conditions: BT549, 5 μM
Description: Representative flow cytometry plots of Annexin-V and propidium iodide (PI) stained apoptotic
or NPB using flow cytometry analysis. Annexin V-FITC staining is indicated on the x axis, and PI staining is indicated on the y axis. The lower left quadrants represent live cells, the lower right quadrants represent early apoptotic cells, the upper left quadrants represent necrotic cells, and the upper right quadrants display late apoptotic cells. Acquisition of Annexin V and PI data are presented as a percentage (%) in each quadrant. Early apoptotic cells are referred to as Annexin- V positive and late apoptotic cells are referred to as Annexin-V and PI double positive.

[2] = test system: MDA-MB-231 cells; assay: Cell cycle analysis by PI flow cytometry; assay type: cell-based, human; conditions: MDA-MB-231, 5 μM
Excerpt: Fig. 3 NCK enhances apoptosis and impedes cell-cycle progression in TNBC cells. a Hallmark analysis of the differential expressed genes (DEGs). […] NES, normalized enrichment score. FDR, false discovery rate.
Supplementary Figure 9: (A) Representative flow cytometry plots using PI staining for DNA
or NPB using flow cytometry analysis.

[3] = test system: MDA-MB-231 xenografts; assay: Orthotopic xenograft, single drug study; assay type: in vivo, BALB/c-nude mice
Description: Next, the in vivo efficacy of NCK was examined in mice injected orthotopically with MDA-MB-231 cells to form xenografts. When the xenograft volume reached 100 mm^3, mice were randomly grouped and injected i.p. with vehicle, NCK (5 mg/kg q.d.) or NCK (20 mg/kg q.d.) for 21 days.

[4] = test system: BT549 cells; assay: Total cell number assay, 2D culture; assay type: cell-based, human
Description: (§1) Fold difference was calculated. Data represent means ± SD (n = 3).

[5] = test system: MDA-MB-231 cells; assay: Total cell number assay, 2D culture; assay type: cell-based, human
Description: as §1

[6] = test system: BT549 cells; assay: AlamarBlue assay IC50 (Supplementary Fig. 5A); assay type: cell-based; conditions: Homo sapiens, BT-549
Excerpt: (§2) Ionization potential (I ) 7.21 eV
(§3) Electron affinity (A) 4.79 eV
(§4) Chemical potential (μ) 6.00 eV […]
(§5) using AlamarBlue assay. Data represent means ± SD. (B) Cartoon representation of the compounds NPB (red) and NCK (black) (depicted in ball & stick model) docked to the BAD protein, occupying the same groove with the BAD Serine 99 residue (yellow) nearby. (C) 2D structure representation of compound NPB interacting with BAD protein residues. (D) Cartoon representation of docked compound and molecular electrostatic potential surfaces of NCK. The color code of the compound lies in the range of -0.121e0 to +0.121e0. Red and blue color in the MEP structure point to more electron rich and electron poor regions respectively. (E) The […]

[7] = test system: MDA-MB-231 cells; assay: AlamarBlue assay IC50 (Supplementary Fig. 5A); assay type: cell-based; conditions: Homo sapiens; MDA-MB-231, AlamarBlue assay
Excerpt: as §2, §3, §4, §5

[8] = test system: MDA-MB-231 cells; assay: Cell survival after siRNA-BAD or scrambled control and NCK; assay type: cell-based, human
Excerpt: To confirm the functional specificity of NCK to BAD, the effect of NCK treatment after siRNA-mediated depletion of BAD expression was examined in MDA-MB-231 cells. […] Consistent with previous findings[32]–[34], no significant changes in cell viability nor CASPASE 3/7 activity were observed upon transfection of siRNA directed to the BAD transcript (Fig. 2g–i).

[9] = test system: TNBC cell lines; assay: 2D total cell number and 3D viability in eight TNBC cell lines; assay type: cell-based, human
[10] = test system: BT549 cells; assay: Cell cycle analysis by PI flow cytometry; assay type: cell-based, human; conditions: BT549, 5 μM
[11] = test system: MDA-MB-231 cells; assay: AlamarBlue cell viability, 3D Matrigel culture; assay type: cell-based, human
[12] = test system: MDA-MB-231 cells; assay: CASPASE 3/7 DEVD assay; conditions: MDA-MB-231, 5 μM NCK
[13] = Phase I, cited from earlier work
[14] = test system: VEGFR2; conditions: read-out: potency on VEGFR2; cited from earlier work
[15] = test system: c-Raf; parameters: method as in SelleckChem; conditions: ref SelleckChem; cited from earlier work
[16] = test system: CSF-1R; parameters: method as in SelleckChem; conditions: ref SelleckChem; cited from earlier work
[17] = test system: LCK; parameters: method as in SelleckChem; conditions: ref SelleckChem; cited from earlier work
[18] = test system: MDA-MB-231 cells; assay: Cambridge cancer compound library screen in combination with NCK; assay type: cell-based, human; conditions: compound at IC25 with NCK 0.1, 1, 10 μM, 72 h, AlamarBlue
Description: Cancer compound library screening was performed using IC25 values of anti-cancer compounds (predicted with Genomics of Drug Sensitivity in Cancer (https://www.cancerrxgene.org/) and NCK at 3-point dilutions (0.1, 1, 10 μM) in medium containing 2% FBS to identify potential synergistic combinations. In detail, MDA-MB-231 cells (5 ×10^3) were seeded in 96-well plates in 80 μl of culture medium (2% FBS) and allowed to settle overnight. 24-hour post-seeding, 10 μl of compounds dissolved in culture medium were prepared and added to the plates to reach a final concentration of IC25 of the respective compound. 10 μl of NCK was also added into cell plates to yield a final concentration of 0.1, 1 or 10 μM. After 72-hours of treatment, cell viability was determined with AlamarBlue reagent and fluorescence was measured using a Tecan microplate reader, as previously described[29].

[19] = NCK 5 and 20 mg/kg q.d. i.p. 21 days

Oc1ccccc1C(c1cccnc1)N1CCN(c2cccc(Cl)c2Cl)CC1 (centres unmarked) [NCK, 2-((4-(2,3-dichlorophenyl)piperazin-1-yl)(pyridin-3-yl)methyl) phenol]
induction of apoptosis (early and late) [1]: more potent effect than NPB in inducing apoptosis
decrease in S-phase [2]: 15.68%
increase in G1-phase [2]: 17.75%
xenograft volume and weight vs vehicle ([3]; NCK 5 mg/kg q.d. i.p. 21 days): significantly reduced xenograft volume
xenograft volume and weight vs vehicle ([3]; NCK 20 mg/kg q.d. i.p. 21 days): significantly reduced xenograft volume
MKI67 positivity in xenografts [3, 19]: decreased MKI67 positivity
TUNEL scores in xenografts [3, 19]: increased TUNEL scores
body weight vs vehicle [3, 19]: no significant change in body weight
pBADSer99 in resected xenografts (IHC) vs vehicle [3, 19]: significantly reduced pBADSer99
fold IC50 difference NCK vs NPB ([4]; BT549, 2D): ~ 2 fold
IC50 ([4]; Homo sapiens, BT-549, BT549, 2% FBS): 1700 nM
IC50 ([5]; Homo sapiens, MDA-MB-231, 2% FBS): 1010 nM
fold IC50 difference NCK vs NPB ([5]; MDA-MB-231, 2D): ~ 3 fold
IC50 [6]: 12100 ± 1360 nM
IC50 [7]: 4940 ± 2800 nM
cell viability vs vehicle ([8]; MDA-MB-231, 5 μM NCK): decreased cell viability
effect on cell viability and CASPASE 3/7 activity after siRNA-mediated depletion of BAD ([8]; MDA-MB-231, siRNA-BAD, 5 μM NCK): abolished the effect of NCK
potency vs NPB in reducing 2D and 3D cell viability [9]: more potent than NPB
decrease in S-phase [10]: 27.12%
increase in G1-phase [10]: 30.43%
IC50 ([11]; Homo sapiens, MDA-MB-231, 3D Matrigel, AlamarBlue): 239 nM
growth in 3D Matrigel ([11]; MDA-MB-231, 5 μM each): reduced cell growth in 3D Matrigel
fold IC50 difference NCK vs NPB ([11]; MDA-MB-231, 3D Matrigel): ~ 6 fold
CASPASE 3/7 activity vs vehicle [12]: increased CASPASE 3/7 activity

O=C(Nc1ccc(OC(F)(F)F)cc1)c1sccc1NCc1ccnc2ccccc12 [OSI-930]
MTD, BID ([13]; ref NCT00513851): 500 mg
MTD, QD ([13]; ref NCT00513851): 1600 mg
MTD of OSI-930 BID with 150 mg erlotinib QD ([13]; ref NCT00603356): 200 mg
IC50 [14]: 9 nM
IC50 [15]: 41 nM
IC50 [16]: 15 nM
IC50 [17]: 22 nM
synergy with NCK in compound library screen (CI, Bliss independence) [18]: low CI (high synergy)
